These results are taken from ChEMBL document CHEMBL3507680, “University of Dundee, Gates Library screen for HepG2 cell viability”.

The nature of the data set: Human HepG2 cell viability assay in 384 well format. It counts as toxicity, cell-based. As to conditions: HepG2 cells, read-out: Inhibition. On the set-up: dose 125 nL, time 70.5 hour; concentration not given beside the values.
For the molecule `COCCN1CCn2cc(CNC(=O)C3CCC3)nc2C1`, the cytotoxicity at 70.5 h was determined as 1.63%.
With `CNC(=O)c1nc2c(s1)CCN(C(=O)c1ccc(OC)cc1)CC2`, the cytotoxicity at 70.5 h is -7.87%.
Regarding `CN(C)CCOCC1CN(C(=O)c2cccnc2)Cc2ccnn2C1` (stereo unspecified), the cytotoxicity at 70.5 h was -6.34%.
Take `Cc1cccc(N2CC3(CCN(S(=O)(=O)c4ccccc4)C3)CC2=O)c1` (stereo unspecified): the cytotoxicity at 70.5 h was -6.5%.
To `Cc1cnc(C(=O)N2CCC3(CC2)CC(c2ccncc2)C(=O)N3)cn1` (stereo unspecified) belongs -5.53%; to `CC(=O)N1CC(=O)N(c2ccccc2)CC12CCN(Cc1ccsc1)C2` (stereo unspecified), -8.03%; to `CS(=O)(=O)N[C@@H]1CN(Cc2ccoc2)C[C@@H]2CCCO[C@@H]21`, -8.39%.
With `Cc1cccc(C(=O)N2CCC3(CC2)CC(c2ccccc2)C(=O)N3)c1` (stereo unspecified), the cytotoxicity at 70.5 h was -0.963%.
As for `CS(=O)(=O)NC[C@@H]1OC[C@H]2CN(C(=O)c3cnccn3)CC[C@H]21`, the cytotoxicity at 70.5 h was -1.54%.
Consider `Cn1cnc(S(=O)(=O)N2CCCn3cnc(CN4CCCC4)c3C2)c1`, for which the cytotoxicity at 70.5 h is -3.74%.
In the case of `COCC1CC2(CCNCC2)CN1c1ncccn1` (stereo unspecified), the cytotoxicity at 70.5 h was found to be 2.77%.
To `Cc1cncc(C(=O)NCC2COCc3c(C)nnn3C2)c1` (stereo unspecified) belongs 0.75%.
As to `O=C(C1CCOCC1)N1CCC2(CC1)CC(Oc1ccccc1)CO2` (stereo unspecified), the cytotoxicity at 70.5 h worked out at 3.04%.
To `CN(C)C(=O)N1Cc2nnn(C)c2C(COCC2CC2)C1` (stereo unspecified) belongs -6.79%; to `Cn1cc(CN2CC3(CCN(C(=O)c4cscn4)C3)C2)cn1`, -7.98%; to `CCNC(=O)c1ncn2c1CN(C)S(=O)(=O)c1ccccc1-2`, -8.36%.
Turning to `Cc1ccc2c(c1)C1(CC2)CCN(c2nncs2)CC1`, the cytotoxicity at 70.5 h was -4.57%.
As for `Fc1cnc(N2CCC3(COCc4cnc(NCC5CC5)nc43)C2)nc1` (stereo unspecified), the cytotoxicity at 70.5 h was -6.29%.
Consider `Cn1cc(CN2CCC3(CCCN(Cc4ccccn4)C3)CC2)cn1`, for which the cytotoxicity at 70.5 h is -5.87%.
To `Cc1ccc(CS(=O)(=O)N2CC[C@H]3[C@H]2CCN3C)cc1` belongs -5.67%; to `O=C(N1CCCC1)N1CCc2c(CNc3ncccn3)cncc2C1`, -1.33%; to `COCCC(=O)N1CCc2c(CNc3ncccn3)cncc2C1`, -1.53%.
As to `Cn1cccc1C(=O)N[C@@H]1CN(Cc2cccs2)[C@@H]2COC[C@@H]21`, the cytotoxicity at 70.5 h is -3.46%.
Regarding `Cc1oncc1C(=O)N[C@@H]1CN(c2ncccn2)C[C@@H]2CCCO[C@@H]21`, the cytotoxicity at 70.5 h was -10.7%.
On to `CS(=O)(=O)N[C@@H]1CN(Cc2ccco2)C[C@@H]2CCCO[C@@H]21`, for which the cytotoxicity at 70.5 h was -6.79%.
As to `COCC1CC2(CCN(S(=O)(=O)C3CC3)CC2)CN1c1ncccn1` (stereo unspecified), the cytotoxicity at 70.5 h worked out at 14.2%.
The value for `Cn1cc(CN2C[C@@H]3CCCO[C@@H]3[C@H](NC(=O)CC3CC3)C2)cn1` was 11.8%; that for `CC(C)N1CCOCC2(CCCN(C(=O)c3cn(C)cn3)C2)C1` (stereo unspecified) was 0.0869%; that for `O=C(NCc1ccco1)[C@@]12CCO[C@@H]1CCN(c1ncccn1)C2` was -2.22%.
In the case of `O=C(NCc1ccco1)[C@@]12CCO[C@@H]1CCN(CC1CCOCC1)C2`, the cytotoxicity at 70.5 h was -1.64%.
To `Cc1ccc(CNC(=O)c2nc3c(o2)CN(C(=O)c2cccnc2)C3)o1` belongs -1.67%.
Consider `O=C(NC1CCC1)[C@@H]1CCO[C@@H]2CCN(C3CCCC3)C[C@H]21`, for which the cytotoxicity at 70.5 h was -3.8%.
In the case of `O=C(NCc1ccco1)[C@@]12CCO[C@@H]1CCN(C1CCC1)C2`, the cytotoxicity at 70.5 h is 2.1%.
`COc1ccc(CC(=O)N2CCN(C)c3ncccc3C2)cc1`: the cytotoxicity at 70.5 h came to 11.6%.
Turning to `Fc1ccccc1CN1C[C@H](OCC2CCOCC2)[C@H]2OCCC[C@H]21`, the cytotoxicity at 70.5 h amounted to 17.2%.
On to `O=C(COC[C@H]1CC[C@H]2[C@H](CCN2c2ncccn2)O1)N1CCCC1`, for which the cytotoxicity at 70.5 h was -3.63%.
On to `CN(C)c1ncc2c(n1)C1(CCN(Cc3ccccc3)C1)COC2` (stereo unspecified), for which the cytotoxicity at 70.5 h was -5.25%.
On to `Cn1cc(N2CC3(CCN(Cc4cccs4)CC3)OCC2=O)cn1`, for which the cytotoxicity at 70.5 h was -4.87%.
With `Cc1ccccc1CN1CCC2(COCc3cnc(N(C)C)nc32)C1` (stereo unspecified), the cytotoxicity at 70.5 h was 0.683%.
To `O=C1NC2(CCN(C(=O)c3ccccc3)CC2)CC1c1cccnc1` (stereo unspecified) belongs 2.71%.
On to `Cc1ccc(CN2Cc3c(C(=O)N(C)C)nn(C)c3C2)s1`, for which the cytotoxicity at 70.5 h is -3.13%.
The value for `CCn1ncc2c1C(COCC1CC1)CN(S(=O)(=O)N(C)C)C2` (stereo unspecified) was -7.75%.
To `Cc1nc(CN2C(=O)COC3(CCN(Cc4nccs4)CC3)C2C)cs1` (stereo unspecified) belongs -6.92%.
Regarding `O=C(Cc1cccs1)N1C[C@@H]2OCCN(CC3CCCO3)[C@@H]2C1` (stereo partly specified), the cytotoxicity at 70.5 h is -1.51%.
On to `Cc1cccc(CN2CCc3ncnc(N4CCOCC4)c3CC2)n1`, for which the cytotoxicity at 70.5 h was -1.5%.
To `Cn1ccc(C(=O)NC2CCC23CCN(C(=O)c2ccncc2)CC3)c1` (stereo unspecified) belongs -6.03%; to `Cc1cccc(-c2ccc3nc(C4CCN(CC5CC5)CC4)nn3c2)c1`, 0.0128%; to `Cc1nc(CN2C[C@@H]3CN(C(=O)c4cnccn4)C[C@@H]3C2)cs1`, -11.6%.
Turning to `Cc1nc(CN2C(=O)C[C@H]3[C@H]2CCN3C2CCOCC2)cs1`, the cytotoxicity at 70.5 h is -2.79%.
As to `CN1Cc2c(C(=O)Nc3cccnc3)ncn2-c2ccccc2S1(=O)=O`, the cytotoxicity at 70.5 h is -8.44%.
To `O=C(c1cnoc1)N1CCC[C@]2(C[C@H](Oc3ncccc3F)CO2)C1` belongs -3.55%; to `CN(C)CCO[C@H]1CN(Cc2ccc3c(c2)OCO3)[C@@H]2COC[C@H]12`, -4.2%.
Take `CN(C)CCOCC1CN(C(=O)c2ccnnc2)Cc2ccnn2C1` (stereo unspecified): the cytotoxicity at 70.5 h is -14%.
`CN(C)CCOCC1CN(C(=O)c2ccsc2)Cc2ccnn2C1` (stereo unspecified): the cytotoxicity at 70.5 h is -5.3%.
Regarding `CC(=O)N1CC(=O)N(c2cccnc2)CC12CCN(Cc1nccs1)C2` (stereo unspecified), the cytotoxicity at 70.5 h is -0.821%.
In the case of `Cn1ccnc1CN1CCN2C[C@H](Oc3cncnc3)C[C@H]2C1`, the cytotoxicity at 70.5 h amounted to 0.558%.
To `O=C(NCc1ccco1)[C@@]12CCO[C@@H]1CCN(Cc1ccccn1)C2` belongs -3.48%.
In the case of `O=C(NCCN1CCCC1)c1nc2c(o1)CN(C(=O)c1cccnc1)C2`, the cytotoxicity at 70.5 h is -1.83%.
The value for `CN1CCCN(C(=O)c2nc3c(o2)CN(C(=O)c2cccnc2)C3)CC1` was -1.59%.
With `Cc1cc(C(=O)N2CCCC3(COCCN(CCN(C)C)C3)C2)no1` (stereo unspecified), the cytotoxicity at 70.5 h turned out to be 1.65%.
On to `COc1ccc(CN2CCC3(CC2)CN(c2ccccn2)CCO3)cc1`, for which the cytotoxicity at 70.5 h is 2.33%.
Consider `O=C1[C@H]2CN(Cc3ccncc3)C[C@H]2CN1c1cncnc1`, for which the cytotoxicity at 70.5 h was -0.121%.
The value for `CN1CC(=O)N(c2cnn(C)c2)CC12CCN(Cc1nccn1C)C2` (stereo unspecified) was -4.58%; that for `O=c1ccc2c(n1CCN1CCCC1)CCN(Cc1ccoc1)CC2` was -5.75%; that for `CCOCC1CN(C)Cc2cnn(CC3CCCC3)c21` (stereo unspecified) was -5.11%.
Consider `COCC1CC2(CCN(Cc3ccccn3)CC2)CN1c1ncccn1` (stereo unspecified), for which the cytotoxicity at 70.5 h is 0.787%.
